Values after ≈ are worked out from the molar mass of the structure shown. Read-outs that look alike come from different tables or passages of the source. Residues, ends and D or L forms follow the SMILES beside them.
Key:
[1] = system: M. tuberculosis; conditions: Kinetic killing assay; ref [22]; cited from earlier work
Source text: Table 6 The general characteristics and the previously reported MIC of each antimicrobial peptide used in this study. | column: MIC (µg/mL)

[2] = system: M. tuberculosis H37Rv; experiment: Checkerboard assay (REMA read-out); type: cell-based, Mycobacterium tuberculosis; conditions: for MIC: Mycobacterium tuberculosis, H37RV, 168 h, checkerboard, agent alone; for MIC / MIC, Combined: REMA read-out, 7 days
[3] = system: M. tuberculosis H37Rv; set-up: method as in PMID 32750539, PMID 29900893; conditions: previous reports; ref [30],[31]; cited from earlier work
[4] = system: M. tuberculosis H37Rv; conditions: 3 h, 100 µg/mL
[5] = system: M. tuberculosis; conditions: cited from earlier work

CC(C)C[C@H](NC(=O)[C@H](CC(C)C)NC(=O)[C@H](CCCCN)NC(=O)[C@H](CCCCN)NC(=O)[C@@H](NC(=O)[C@H](C)N)C(C)C)C(=O)N[C@@H](CCCNC(=N)N)C(=O)N[C@@H](Cc1c[nH]c2ccccc12)C(=O)N[C@@H](Cc1c[nH]c2ccccc12)C(=O)N[C@@H](CO)C(=O)N[C@@H](CCCNC(=N)N)C(=O)N[C@@H](Cc1c[nH]c2ccccc12)C(=O)N[C@@H](Cc1c[nH]c2ccccc12)C(=O)N[C@@H](CCCCN)C(=O)N[C@@H](CCCCN)C(=O)O [AK 15-6] (H-AVKKLLRWWSRWWKK-OH; N-terminus and C-terminus assumed)
MIC [1]: 37.5 µg/mL (≈ 18.1 µM)

NNC(=O)c1ccncc1 [INH, isoniazid]
MIC [2]: 0.025 µg/mL | FIC ([2]; combination INH + D-hLF 1-11): 0.48 | MIC, Combined ([2]; combination INH + D-hLF 1-11): 0.012 µg/mL | MIC [3]: 0.03 to 0.12 µg/mL

CC(C)C[C@H](NC(=O)[C@H](CCCNC(=N)N)NC(=O)CNC(=O)CNC(=O)[C@@H](N)CCCNC(=N)N)C(=O)N[C@H]1CSSC[C@@H](C(=O)N[C@H](C(=O)NCC(=O)N[C@@H](CCCNC(=N)N)C(N)=O)C(C)C)NC(=O)[C@H](C(C)C)NC(=O)[C@@H]2CSSC[C@H](NC(=O)[C@H](Cc3ccc(O)cc3)NC1=O)C(=O)N[C@@H](CCCNC(=N)N)C(=O)N[C@@H](CCCNC(=N)N)C(=O)N[C@@H](CCCNC(=N)N)C(=O)N[C@@H](Cc1ccccc1)C(=O)N2 [PG-1]
percent of mycobacterial growth inhibition [4]: approximately 94.22% | percent of mycobacterial growth inhibition ([5]; 128 µg/mL, ref [3] Fattorini and colleagues): 96.7% | MIC ([5]; Plate count assay, ref [3]): 128 µg/mL (≈ 59.4 µM)

CO[C@H]1/C=C/O[C@@]2(C)Oc3c(C)c(O)c4c(O)c(c(/C=N/N5CCN(C)CC5)c(O)c4c3C2=O)NC(=O)/C(C)=C\C=C\[C@H](C)[C@H](O)[C@@H](C)[C@@H](O)[C@@H](C)[C@H](OC(C)=O)[C@@H]1C [RF, rifampicin]
MIC [2]: 0.5 µg/mL | MIC, Combined ([2]; combination RF + D-hLF 1-11): 0.031 25 µg/mL | MIC [3]: 0.12 to 0.5 µg/mL
